“And” between values parts separate entries of the source, which are not always exact repeats. Equal values may be shown once.
How the values were obtained:
[1] = system: primary cultures of rat striatal neurons (medium spiny neurons); experiment: cGMP accumulation in SNP-stimulated striatal cultures (Example 2); type: cell-based; details: compound alone, no stimulus
[2] = system: male CD rats; experiment: Catalepsy (bar test), alone and with haloperidol; type: in vivo, rat; details: s.c.; for catalepsy when administered alone: 30 min after dosing, papaverine up to 32 mg/kg
Text: This animal model is used to analyze the effects of compounds on basal ganglia output. […] For some experiments, this was immediately followed by haloperidol. Thirty minutes after drug administration(s), the degree of catalepsy was quantified by placing the animals forepaws on an elevated (10 cm) bar (1 cm diameter) and determining the latency to remove both forepaws from the bar with a latency cutoff of 30 sec. Latencies were ranked within each treatment group for comparison by a Kruskall-Wallace analysis of variance. Post hoc analysis was by the Mann Whitney U test.

[3] = molecular target: T1, PDE10 (Rattus norvegicus, UniProt Q9QYJ6); experiment: PDE inhibition, SPA cyclic nucleotide hydrolysis assay; type: biochemical
T1 construct: made in house; host or cells: SF9 cells
T1 sequence (Q9QYJ6 1-794): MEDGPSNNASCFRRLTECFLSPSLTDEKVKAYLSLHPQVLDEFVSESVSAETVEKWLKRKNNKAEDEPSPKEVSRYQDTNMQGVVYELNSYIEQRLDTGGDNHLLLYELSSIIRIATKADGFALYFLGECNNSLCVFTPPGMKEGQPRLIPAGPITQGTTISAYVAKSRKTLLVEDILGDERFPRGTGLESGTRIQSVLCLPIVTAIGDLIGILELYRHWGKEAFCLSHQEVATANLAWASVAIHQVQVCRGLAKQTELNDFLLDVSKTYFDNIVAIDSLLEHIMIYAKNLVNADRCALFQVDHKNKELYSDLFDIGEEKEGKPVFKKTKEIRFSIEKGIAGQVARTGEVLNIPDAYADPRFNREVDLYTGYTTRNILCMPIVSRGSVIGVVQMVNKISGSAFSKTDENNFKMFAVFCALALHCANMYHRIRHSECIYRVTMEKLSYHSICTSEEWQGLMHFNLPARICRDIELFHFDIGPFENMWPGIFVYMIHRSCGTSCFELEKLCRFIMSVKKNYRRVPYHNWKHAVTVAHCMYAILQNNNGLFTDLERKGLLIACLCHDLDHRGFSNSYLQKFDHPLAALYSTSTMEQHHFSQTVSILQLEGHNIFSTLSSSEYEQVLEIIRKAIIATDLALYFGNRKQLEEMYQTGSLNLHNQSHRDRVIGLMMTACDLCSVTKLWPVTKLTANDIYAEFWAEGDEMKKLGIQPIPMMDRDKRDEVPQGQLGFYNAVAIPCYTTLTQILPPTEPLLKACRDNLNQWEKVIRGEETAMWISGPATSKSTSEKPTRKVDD

[4] = system: Sprague-Dawley rats; experiment: Locomotor activity (shuttle box crossovers), PCP- or amphetamine-stimulated; type: in vivo, rat
Procedure: Adult, male, Sprague-Dawley rats (250-300 g) were obtained from Charles River (Wilmington, Mass.). Locomotor activity was assessed using crossover behavior in commercially available shuttle boxes (Coulbourn Instruments, Allentown, Pa.). Data was collected in 5 minute intervals for 1 hour after drug administration. Animals received either vehicle (5% DMSO, 5% Emulphor, 90% Saline) phencyclidine (PCP, Sigma Chem. Co.) or amphetamine Sulfate (RBI) followed immediately by either vehicle or test compound. Statistical analysis was performed using the Student's t-test.

[5] = molecular target: T2, PDE9 (Homo sapiens, UniProt O76083); experiment: PDE inhibition, SPA cyclic nucleotide hydrolysis assay; type: biochemical
T2 construct: made in house; host or cells: SF9 cells
T2 sequence (O76083 whole entry): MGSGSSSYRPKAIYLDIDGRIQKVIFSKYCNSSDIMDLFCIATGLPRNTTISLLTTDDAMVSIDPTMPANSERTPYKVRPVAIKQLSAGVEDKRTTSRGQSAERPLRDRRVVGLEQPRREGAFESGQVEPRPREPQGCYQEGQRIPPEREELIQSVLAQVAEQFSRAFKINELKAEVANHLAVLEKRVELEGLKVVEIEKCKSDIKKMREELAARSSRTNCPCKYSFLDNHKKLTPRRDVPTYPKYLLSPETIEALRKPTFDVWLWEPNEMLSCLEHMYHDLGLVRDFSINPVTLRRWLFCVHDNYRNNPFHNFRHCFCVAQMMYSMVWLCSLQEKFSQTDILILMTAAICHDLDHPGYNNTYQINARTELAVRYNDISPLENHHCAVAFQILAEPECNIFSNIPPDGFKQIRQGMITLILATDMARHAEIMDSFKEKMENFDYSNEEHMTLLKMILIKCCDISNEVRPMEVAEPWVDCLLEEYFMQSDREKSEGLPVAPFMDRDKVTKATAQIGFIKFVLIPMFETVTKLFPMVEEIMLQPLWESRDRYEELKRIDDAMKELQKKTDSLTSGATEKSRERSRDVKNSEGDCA
Procedure: (§8) In one assay, a substance is screened for inhibition of cyclic nucleotide hydrolysis by the PDE10 and the PDEs from the other gene families. The cyclic nucleotide substrate concentration used in the assay of each individual PDE is ⅓ of the Km concentration, allowing for comparisons of IC50 values across the different enzymes. PDE activity is measured using a Scintillation Proximity Assay (SPA)-based method as previously described (Fawcett et al., 2000). The effect of PDE inhibitors is determined by assaying a fixed amount of enzyme (PDEs 1-11) in the presence of varying substance concentrations and low substrate, such that the IC50 approximates the Ki (cGMP or cAMP in a 3:1 ratio unlabelled to [^3H]-labeled at a concentration of ⅓ Km). The final assay volume is made up to 100 μl with assay buffer [20 mM Tris-HCI pH 7.4, 5 mM MgCl2, 1 mg/ml bovine serum albumin]. […] Plates are re-sealed and shaken for 20 min, after which the beads were allowed to settle for 30 min in the dark and then counted on a TopCount plate reader (Packard, Meriden, Conn.). […]
(§9) PDE activity was measured using the assay with yttrium silicate SPA beads described above in the Detailed Description section.

[6] = system: primary cultures of rat striatal neurons (medium spiny neurons); experiment: cAMP accumulation in forskolin-stimulated striatal cultures (Example 2); type: cell-based; details: for cAMP EC200: forskolin-stimulated rat striatal cultures, mean ± S.E.M.; for cAMP/cGMP (ratio of EC200 values): rat striatal cultures, Example 2
Procedure: (§1) The striatal cultures were prepared as previously described (Ventimiglia et al., Eur. J. Neurosci. 7: 213-222, 1995). Briefly, striata (caudate nucleus and putamen) are dissected from E17 rats, were dissociated to produce a single cell suspension and plated at a density of 5×10^4 neurons/well in multiwell plates coated with poly-L-ornithine/laminin. The cells were plated in Neurobasal medium with B27 supplements and BDNF (100 ng/mL). Experiments were typically performed after 4 days in vitro. Medium spiny neurons comprise the majority of cells in these cultures (50 to 60%, as confirmed by GABA immunoreactivity).
(§2) The striatal cells were exposed to phosphodiesterase inhibitors and incubated for twenty minutes at 37 degrees Celsius. When measuring cGMP, the neurons were stimulated with sodium nitroprusside, a nitric oxide source for two minutes following the 20-minute incubation with compound. When measuring cAMP, the neurons were stimulated with forskolin, an activator of adenylate cyclase for the duration of the twenty minute compound incubation. The cells were lysed using a 9:1 combination of cAMP SPA direct screening Assay Buffer (0.05M acetate with 0.01% sodium azide) and Buffer A (133 mg/mL dodecyltrimethylammonium bromide) and the lysates were frozen on dry ice. A cGMP [[…]] or cAMP [[…]] scintillation proximity assay (SPA) system (Amersham code RPA 540 and RPA 559, respectively) was used to detect the concentration of the respective cyclic nucleotide in the cell lysate.
(§3) We therefore examined the effects of the compound under conditions in which cAMP or cGMP synthesis was stimulated with forskolin or the NO donor sodium nitroprusside (SNP), respectively.

[7] = molecular target: T3, PDE11 (Homo sapiens, UniProt Q9HCR9); experiment: PDE inhibition, SPA cyclic nucleotide hydrolysis assay; type: biochemical
T3 construct: made in house; host or cells: SF9 cells
T3 sequence (Q9HCR9 445-933): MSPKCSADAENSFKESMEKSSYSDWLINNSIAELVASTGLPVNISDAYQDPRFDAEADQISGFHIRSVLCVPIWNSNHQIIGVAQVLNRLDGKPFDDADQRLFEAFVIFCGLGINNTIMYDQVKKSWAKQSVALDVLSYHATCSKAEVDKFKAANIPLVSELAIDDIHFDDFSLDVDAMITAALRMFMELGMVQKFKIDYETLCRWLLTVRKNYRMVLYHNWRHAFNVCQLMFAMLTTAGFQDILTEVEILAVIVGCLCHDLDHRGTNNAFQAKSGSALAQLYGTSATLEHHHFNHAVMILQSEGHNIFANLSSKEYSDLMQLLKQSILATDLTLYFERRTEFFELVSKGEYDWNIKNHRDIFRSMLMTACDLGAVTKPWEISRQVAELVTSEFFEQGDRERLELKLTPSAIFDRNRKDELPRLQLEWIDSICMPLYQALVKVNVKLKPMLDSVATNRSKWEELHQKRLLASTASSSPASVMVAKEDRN
Procedure: as §8, §9

[8] = system: primary cultures of rat striatal neurons (medium spiny neurons); experiment: cAMP accumulation in forskolin-stimulated striatal cultures (Example 2); type: cell-based; details: compound alone, no stimulus
[9] = system: T4, PDE7; experiment: PDE inhibition, SPA cyclic nucleotide hydrolysis assay; type: biochemical, human; details: substrate at 1/3 Km
T4 construct: other: substrate at 1/3 Km
Text: (§4) PDEs 2, 3 and 5, isozymes, including human PDEs, can, for example, be prepared from corpus cavernosum; PDE1, isozymes including human, from cardiac ventricle; and PDE4, isozymes, including human, from skeletal muscle. PDE6 can be prepared, for example, from canine retina. Description of enzyme preparation from native tissue is described, for example, by Boolell, M. et al., Int. J. Impotence Research 8:7-52, 1996, incorporated herein by reference.
(§5) PDEs 7-11 can similarly be prepared from native tissue. Isozymes from the PDEs 7-9 and 11 families can alternatively be generated from full length human recombinant clones transfected into, for example, SF9 cells as described in Fisher, D. A., et al., Biochem. Biophys. Res. Comm. 246, 570-577, 1998; Soderling, S. H. et al., PNAS 96: 7071-7076, 1999; Fisher, D. A. et al., J. Biol. Chem. 273, 15559-15564, 1998b; and Fawcett, L., et al., PNAS 97: 3702-3707, 2000; respectively. PDE10 can also be generated from a rat recombinant clone transfected into SF9 cells (Fujishige et al., European Journal of Biochemistry, Vol. 266, 1118-1127 (1999)). The enzymes are then prepared by FPLC from the soluble fraction of cell lysates as described for PDE6. The aforementioned references are incorporated in their entireties herein by reference. […]

[10] = system: T5, PDE1; experiment: as above; type: biochemical, human; details: substrate at 1/3 Km
T5 construct: other: substrate at 1/3 Km
Text: as §4, §5

[11] = system: primary cultures of rat striatal neurons (medium spiny neurons); experiment: cGMP accumulation in SNP-stimulated striatal cultures (Example 2); type: cell-based; details: for cGMP EC200: SNP-stimulated rat striatal cultures, mean ± S.E.M.
Procedure: as §1, §2, §3

[12] = system: medium spiny neurons; experiment: Differentiation of medium spiny neurons to GABA phenotype, Array Scan; type: cell-based, rat; details: added at plating, read at 6 DIV
Procedure: The transcriptional events activated following CREB phosphorylation are involved in the survival and differentiation of neurons. We investigated whether the PDE inhibitors in Table 3 effect the survival and differentiation of the medium spiny neurons. These experiments were conducted using a protocol used by Ventimiglia et al. (see Ventimiglia et al., 1995, supra) to assay the effects of BDNF on these processes in medium spiny neurons. Specifically, the PDE inhibitors were added to the medium spiny neuron culture medium at the time of plating, and then at 6 DIV various parameters related to neuronal survival and differentiation were quantified using the Array Scan System from Cellomics, Inc (Pittsburgh, Pa., USA).
Blue-nuclei; Green-neuron; Red-neuron staining positively for GABA.

[13] = system: medium spiny neurons; experiment: CREB phosphorylation in medium spiny neurons, Western blot; type: cell-based, rat; details: Western blotting
Procedure: (§6) Medium spiny neuron cultures were prepared as discussed in Example 2 from striata from E17 or E18 rat embryos. The striata were digested with trypsin and the dissociated cells plated on poly-L-omithine/laminin coated plates in Neurobasal medium containing B27 supplement. For assays of cyclic nucleotide formation and CREB phosphorylation, neurons are also supplemented with 50 ng/ml BDNF and used at 6 DIV. At this time, approximately 90% of the cells are of neuronal morphology and 50% stain positively for GABA.
cAMP and cGMP activate protein kinases PKA and PKG, respectively. Both kinases are capable of phosphorylating the transcription regulator CREB. We examined the effects of the selective PDE inhibitors in Table 3 on phosphorylation of CREB as a downstream event in the cyclic nucleotide signaling cascade.

[14] = system: medium spiny neurons; experiment: cAMP accumulation in forskolin-stimulated medium spiny neuron culture (Example 5); type: cell-based, rat
Procedure: as §6
(§7) The PDE inhibitors were differentiated by the potencies with which they potentiated the increase in cAMP versus cGMP (Table 3).

[15] = system: medium spiny neurons; experiment: cGMP accumulation in SNAP-stimulated medium spiny neuron culture (Example 5); type: cell-based, rat
Procedure: as §6, §7

Compound: COc1ccc(Cc2nccc3cc(OC)c(OC)cc23)cc1OC [Papaverine, 1-[(3,4-dimethoxyphenyl)methyl]-6,7-dimethoxyisoquinoline]
- change in basal level of cGMP [1]: did not produce measurable changes
- catalepsy when administered alone [2]: did not alone induce catalepsy
- minimum effective dose for potentiation of haloperidol-induced catalepsy ([2]; haloperidol […]): 3.2 mg/kg
- IC50 [3]: 0.018 µM
- locomotor activity, compound alone ([4]; 32 mg/kg, i.p., 60 min): small decrease in locomotor activity
- amphetamine stimulated locomotion, second experiment ([4]; amphetamine 1 mg/kg s.c., 30 minutes): effectively inhibited
- locomotor activity stimulated by phencyclidine ([4]; papaverine 32 mg/kg i.p., PCP […] i.p., 60 min): significant reduction in the locomotor activity
- locomotor activity stimulated by amphetamine ([4]; papaverine 32 mg/kg i.p., amphetamine 1 mg/kg i.p., 60 min): without effecting
- IC50 [5]: 400 µM
- cAMP EC200 [6]: 38.3 ± 11.4 (4) μM
- IC50 [7]: 11 µM
- change in basal level of cAMP [8]: did not produce measurable changes
- IC50 [9]: 27 µM
- IC50 [10]: 37 µM
- cGMP EC200 [11]: 11.7 μM and 11.7 ± 8.2 (4) μM
- maximal elevation of cGMP over cultures stimulated with SNP alone ([11]; at 100 μM): 5 fold

Compound: COc1ccc(C2CNC(=O)C2)cc1OC1CCCC1 (stereo not drawn) [Rolipram]
- number of GABAergic neurons [12]: no effect
- cAMP EC200 [6]: 2.5 ± 2.0 (3) μM
- cAMP EC200 ([6]; listed as rolipram): 2.5 µM
- cAMP/cGMP (ratio of EC200 values) [6]: 0.09
- rank order of efficacy in increasing CREB phosphorylation [13]: forskolin>selective PDE 10 inhibitor>rolipram
- CREB phosphorylation ([13]; compound without other stimuli): increased CREB phosphorylation
- effect on accumulation of cAMP stimulated with forskolin ([14]; FIG. 3): potentiate the increase
- cAMP EC200 ([14]; forskolin-stimulated medium spiny neurons, 6 DIV): 2.0 ± 0.2 µM
- cAMP/cGMP (ratio of EC200 values) ([14]; medium spiny neurons, Example 5): 0.03
- change in cAMP level in the absence of a stimulus ([14]; no stimulus): no detectable change
- cGMP EC200 [11]: 29.2 ± 10.3 (3) μM
- fold higher concentration to double cGMP accumulation than cAMP ([11]; relative to cAMP EC200): 10 fold
- effect on accumulation of cGMP stimulated with SNAP ([15]; FIG. 4): potentiate the increase
- cGMP EC200 ([15]; SNAP-stimulated medium spiny neurons, 6 DIV): 71.1 ± 9.9 µM
- change in cGMP level in the absence of a stimulus ([15]; no stimulus): no detectable change

Compound: O=C(CCCN1CCC(O)(c2ccc(Cl)cc2)CC1)c1ccc(F)cc1 [haloperidol]
- maximally effective dose for catalepsy [2]: 1 mg/kg
- catalepsy when administered alone [2]: robust catalepsy

Compound: CCCOc1ccccc1-c1nc2nn[nH]c2c(=O)[nH]1 [Zaprinast]
- cAMP EC200 [6]: >100 (3) μM
- cAMP/cGMP (ratio of EC200 values) [6]: 1
- cGMP EC200 [11]: 98.3 ± 10.3 (3) μM

Compound: CC(C)Cn1c(=O)n(C)c(=O)c2[nH]cnc21 [IBMX]
- cAMP EC200 [6]: 30 μM and 30.2 (2) μM
- cAMP/cGMP (ratio of EC200 values) [6]: 1.5
- cGMP EC200 [11]: 19 μM and 19.5 (1) μM
